# Measurements reported in paper PMC10039885, “Unnatural activities and mechanistic insights of cytochrome P450 PikC gained from site-specific mutagenesis by non-canonical amino acids” (Nature Communications, 2023).
# Molecular target: T1, PikC (PikCWT; cytochrome P450 CYP107L1) (Streptomyces venezuelae, UniProt O87605)
# T1 construct: pET28a-pikC, expressed in E. coli BL21(DE3), Ni-NTA purified; heme protein
# T1 sequence (O87605 1-416): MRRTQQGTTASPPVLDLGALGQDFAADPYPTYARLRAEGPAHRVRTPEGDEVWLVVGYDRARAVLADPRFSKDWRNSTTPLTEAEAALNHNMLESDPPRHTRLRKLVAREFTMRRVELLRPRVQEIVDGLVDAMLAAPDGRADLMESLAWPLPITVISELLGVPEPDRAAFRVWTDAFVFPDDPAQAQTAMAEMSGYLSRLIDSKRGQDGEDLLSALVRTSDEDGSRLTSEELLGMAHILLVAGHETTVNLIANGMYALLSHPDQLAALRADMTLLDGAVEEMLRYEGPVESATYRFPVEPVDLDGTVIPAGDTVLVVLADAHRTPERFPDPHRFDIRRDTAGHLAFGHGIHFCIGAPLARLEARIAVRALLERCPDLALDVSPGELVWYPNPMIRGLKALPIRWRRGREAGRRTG
# Assay: UV-vis difference spectral titration ([…]-420 nm)
# Format: binding
row,Structure (SMILES),Kd
1,"CC[C@H]1OC(=O)[C@H](C)[C@@H](O[C@@H]2O[C@H](C)C[C@H](N(C)C)[C@H]2O)[C@@H](C)C[C@@H](C)C(=O)/C=C/[C@H]1C [compound 4, YC-17]",178 µM
2,"CC[C@H]1OC(=O)[C@H](C)C(=O)[C@H](C)[C@@H](O[C@@H]2O[C@H](C)C[C@H](N(C)C)[C@H]2O)[C@@H](C)C[C@@H](C)C(=O)/C=C/[C@H]1C [compound 5, narbomycin]",374 µM
